Data reported in US20020137929A1, “1 - (3-heterocyclylphenyl) isothiourea, -isourea, -guanidine and -amidine herbicidal agents” (Intellectual Property Department, BASF Aktiengesellschaft, priority 1998, published 2002).

Experiments:
[1] = system: AMBEL (Ragweed, Common); assay: Postemergence herbicidal evaluation; format: in vivo, Ambrosia artemisifolia; conditions: postemergence
Summary of the method: (§1)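 Two-week-old seedlings sprayed with compound in 50/50 acetone/water plus 0.5% TWEEN 20, at about 0.0156 to 0.500 kg/ha, nozzle at 40 psi. Kept in greenhouse; rated visually 4-5 weeks after treatment on a 0-9 scale versus control, repeat tests averaged.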

[2] = system: CASOB (Sicklepod); assay: Postemergence herbicidal evaluation; format: in vivo, Cassia obtusifolia; conditions: postemergence
Summary of the method: as §1

[3] = system: CHEAL (Lambsquarters, Common); assay: Postemergence herbicidal evaluation; format: in vivo, Chenopodium album; conditions: postemergence
Summary of the method: as §1

[4] = system: GALAP (Galium); assay: Postemergence herbicidal evaluation; format: in vivo, Galium aparine; conditions: postemergence
Summary of the method: as §1

[5] = system: ECHCG (Barnyardgrass); assay: Postemergence herbicidal evaluation; format: in vivo, Echinochloa crus-galli; conditions: postemergence
Summary of the method: as §1

[6] = system: SETVI (Foxtail, Green); assay: Postemergence herbicidal evaluation; format: in vivo, Setaria viridis; conditions: postemergence
Summary of the method: as §1

[7] = system: GLXMAW (Soybean, Williams); assay: Postemergence herbicidal evaluation; format: in vivo, Glycine max, (L.) Merr. cv Williams; conditions: postemergence
Summary of the method: as §1

[8] = system: ORYSAT (Rice, Tebonnet); assay: Postemergence herbicidal evaluation; format: in vivo, Oryza sativa, (L.) Tebonnet; conditions: postemergence
Summary of the method: as §1

[9] = system: CHEAL (Lambsquarters, Common); assay: Preemergence herbicidal evaluation; format: in vivo, Chenopodium album; conditions: rated 4-5 weeks after treatment
Summary of the method: (§2)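 Each species is sown separately in potting soil over roughly an inch of soil before any emergence. The soil surface then receives an aqueous acetone spray delivering about 0.0156 to 0.500 kg/ha of compound. After four to five weeks, injury is scored from 0 to 9 relative to a control.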

[10] = system: IPOHE (Morningglory, Ivyleaf); assay: Preemergence herbicidal evaluation; format: in vivo, Ipomoea hederacea; conditions: rated 4-5 weeks after treatment
Summary of the method: as §2

[11] = system: ECHCG (Barnyardgrass); assay: Preemergence herbicidal evaluation; format: in vivo, Echinochloa crus-galli; conditions: rated 4-5 weeks after treatment
Summary of the method: as §2

[12] = system: SETVI (Foxtail, Green); assay: Preemergence herbicidal evaluation; format: in vivo, Setaria viridis; conditions: rated 4-5 weeks after treatment
Summary of the method: as §2

[13] = system: ZEAMX (Corn, Field); assay: Preemergence herbicidal evaluation; format: in vivo, Zea mays; conditions: rated 4-5 weeks after treatment
Summary of the method: as §2

[14] = system: ECHORC (Watergrass (Calif.)); assay: Preemergence weed control under flooded paddy conditions; format: in vivo, Echinochloa oryzoides; conditions: rated 3-4 weeks after treatment
Summary of the method: (§3)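 Ratings on a 0-9 visual scale cover stand, vigor, malformation, size, chlorosis and overall appearance relative to a control, taken three to four weeks post-treatment. Application was into flood water over freshly sown silt loam at roughly 0.0313 to 0.500 kg/ha.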

[15] = system: CYPIR (Rice Flatsedge); assay: as above; format: in vivo, Cyperus iria; conditions: rated 3-4 weeks after treatment
Summary of the method: as §3

[16] = system: CYPSE (Flatsedge); assay: as above; format: in vivo, Cyperus serotinus; conditions: rated 3-4 weeks after treatment
Summary of the method: (§4)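 Seeds or propagules sown in silt loam kept flooded 1.5-3 cm; compounds in 50/50 acetone/water pipetted into flood water at about 0.0313 to 0.500 kg/ha. Greenhouse; visual 0-9 rating versus untreated control 3-4 weeks after treatment.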

[17] = system: MOOVA (Monochoria); assay: as above; format: in vivo, Monochoria vaginalis; conditions: rated 3-4 weeks after treatment
Summary of the method: as §4

`C=CCN1C(=O)C(CC(=O)NS(=O)(=O)C(C)C)SC1=Nc1cc(-n2c(=O)cc(C(F)(F)F)n(C)c2=O)c(F)cc1Cl` (stereo not shown) [Compound 118, 3-Allyl-2-{{2-chloro-5-[3,6-dihydro-3-methyl-2,6-dioxo-4-(trifluoromethyl)-1(2H)-pyrimidinyl]-4-fluorophenyl}imino}-N-(isopropylsulfonyl)-4-oxo-5-thiazolidineacetamide] was tested, and the “herbicidal rating AMBEL” value ([1]; rate 0.0158 kg/ha) was 0.0, the “herbicidal rating AMBEL” value ([1]; rate 0.0315 kg/ha) was 2.0 and the “herbicidal rating AMBEL” value ([1]; rate 0.0630 kg/ha) was 2.0. For the same compound, the “herbicidal rating CASOB” value ([2]; rate 0.0158 kg/ha) was 0.0, the “herbicidal rating CASOB” value ([2]; rate 0.0315 kg/ha) was 0.0 and the “herbicidal rating CASOB” value ([2]; rate 0.0630 kg/ha) was 0.0. For the same compound, the “herbicidal rating CHEAL” value ([3]; rate 0.0158 kg/ha) was 0.0, the “herbicidal rating CHEAL” value ([3]; rate 0.0315 kg/ha) was 0.0 and the “herbicidal rating CHEAL” value ([3]; rate 0.0630 kg/ha) was 5.0. For the same compound, the “herbicidal rating GALAP” value ([4]; rate 0.0158 kg/ha) was 0.0, the “herbicidal rating GALAP” value ([4]; rate 0.0315 kg/ha) was 0.0 and the “herbicidal rating GALAP” value ([4]; rate 0.0630 kg/ha) was 1.0. For the same compound, the “herbicidal rating ECHCG” value ([5]; rate 0.0158 kg/ha) was 0.0, the “herbicidal rating ECHCG” value ([5]; rate 0.0315 kg/ha) was 1.0 and the “herbicidal rating ECHCG” value ([5]; rate 0.0630 kg/ha) was 1.0. The “herbicidal rating SETVI” value ([6]; rate 0.0158 kg/ha) was 0.0, the “herbicidal rating SETVI” value ([6]; rate 0.0315 kg/ha) was 0.0 and the “herbicidal rating SETVI” value ([6]; rate 0.0630 kg/ha) was 4.0. The “herbicidal rating GLXMAW” value ([7]; rate 0.0158 kg/ha) was 4.5, the “herbicidal rating GLXMAW” value ([7]; rate 0.0315 kg/ha) was 5.0 and the “herbicidal rating GLXMAW” value ([7]; rate 0.0630 kg/ha) was 6.0. The “herbicidal rating ORYSAT” value ([8]; rate 0.0158 kg/ha) was 2.0, the “herbicidal rating ORYSAT” value ([8]; rate 0.0315 kg/ha) was 2.0 and the “herbicidal rating ORYSAT” value ([8]; rate 0.0630 kg/ha) was 2.0. The “Preemergence herbicidal rating CHEAL” value ([9]; rate 0.0625 kg/ha) was 6.0, the “Preemergence herbicidal rating CHEAL” value ([9]; rate 0.1250 kg/ha) was 9.0 and the “Preemergence herbicidal rating CHEAL” value ([9]; rate 0.2500 kg/ha) was 9.0. The “Preemergence herbicidal rating IPOHE” value ([10]; rate 0.0625 kg/ha) was 0.0, the “Preemergence herbicidal rating IPOHE” value ([10]; rate 0.1250 kg/ha) was 1.0 and the “Preemergence herbicidal rating IPOHE” value ([10]; rate 0.2500 kg/ha) was 6.0. For the same compound, the “Preemergence herbicidal rating ECHCG” value ([11]; rate 0.0625 kg/ha) was 0.0, the “Preemergence herbicidal rating ECHCG” value ([11]; rate 0.1250 kg/ha) was 0.0 and the “Preemergence herbicidal rating ECHCG” value ([11]; rate 0.2500 kg/ha) was 0.0. For the same compound, the “Preemergence herbicidal rating SETVI” value ([12]; rate 0.0625 kg/ha) was 0.0, the “Preemergence herbicidal rating SETVI” value ([12]; rate 0.1250 kg/ha) was 0.0 and the “Preemergence herbicidal rating SETVI” value ([12]; rate 0.2500 kg/ha) was 2.0. For the same compound, the “Preemergence herbicidal rating ZEAMX” value ([13]; rate 0.0625 kg/ha) was 0.0, the “Preemergence herbicidal rating ZEAMX” value ([13]; rate 0.1250 kg/ha) was 0.0 and the “Preemergence herbicidal rating ZEAMX” value ([13]; rate 0.2500 kg/ha) was 0.0. For the same compound, the “herbicidal effect rating, ECHORC” value ([14]; 0.0313 kg/ha) was 0.0, the “herbicidal effect rating, ECHORC” value ([14]; 0.0625 kg/ha) was 0.0 and the “herbicidal effect rating, ECHORC” value ([14]; 0.1250 kg/ha) was 4.0. For the same compound, the “herbicidal effect rating, ECHORC” value ([14]; 0.2500 kg/ha) was 6.0, the “herbicidal effect rating, CYPIR” value ([15]; 0.0313 kg/ha) was 0.0 and the “herbicidal effect rating, CYPIR” value ([15]; 0.0625 kg/ha) was 0.0. The “herbicidal effect rating, CYPIR” value ([15]; 0.1250 kg/ha) was 0.0, the “herbicidal effect rating, CYPIR” value ([15]; 0.2500 kg/ha) was 0.0 and the “herbicidal effect rating, CYPSE” value ([16]; 0.0313 kg/ha) was 0.0. The “herbicidal effect rating, CYPSE” value ([16]; 0.0625 kg/ha) was 0.0, the “herbicidal effect rating, CYPSE” value ([16]; 0.1250 kg/ha) was 0.0 and the “herbicidal effect rating, CYPSE” value ([16]; 0.2500 kg/ha) was 0.0. The “herbicidal effect rating, MOOVA” value ([17]; 0.0313 kg/ha) was 4.0, the “herbicidal effect rating, MOOVA” value ([17]; 0.0625 kg/ha) was 4.0 and the “herbicidal effect rating, MOOVA” value ([17]; 0.1250 kg/ha) was 6.0. The “herbicidal effect rating, MOOVA” value ([17]; 0.2500 kg/ha) was 7.0.
